The values below come from PubChem BioAssay (NCI).

The structures appear in SMILES notation.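 In this assay, cells in 96-well plates receive the compound at five concentrations for 48 hours. Endpoints are linearly interpolated between the surrounding concentrations. Definition used: TGI = concentration required for complete inhibition of growth.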

Some test systems named below: PC-3 prostate; LOX IMVI melanoma; HS 578T breast; MOLT-4 leukemia; MDA-MB-231 breast; CAKI-1 renal; MALME-3M melanoma; CCRF-CEM leukemia; SW-620 colon; DU-145 prostate; MDA-MB-435; SF-268 CNS; SR leukemia; NCI-H460 lung; OVCAR-8 ovarian; A498 renal; SK-MEL-2 melanoma; K-562 leukemia; T-47D breast.
Assay in all cases: NCI anticancer screen, dose series, 48 h

Consider `CCN(CC)CCCNc1ccc([N+](=O)[O-])c2nc3ccccc3c(N)c12`, for which the TGI in the test with PC-3 prostate was 2.25 µM; with LOX IMVI melanoma it was 2.14 µM; in the test with HS 578T breast, 1.91 µM; in the test with MOLT-4 leukemia it was 4.29 µM; in the test on MDA-MB-231 breast, 2.09 µM; with CAKI-1 renal, over 10 µM. In addition, the TGI was over 10 µM with MALME-3M melanoma; 2.91 µM in the test with CCRF-CEM leukemia; 2.04 µM with SW-620 colon; over 10 µM in the test with DU-145 prostate; 2.9 µM in the test with MDA-MB-435; over 10 µM in the test on SF-268 CNS. The TGI amounted to 4.56 µM in the test on SR leukemia; 1.44 µM in the test with NCI-H460 lung; 4.51 µM in the test with OVCAR-8 ovarian; 9.95 µM in the test with A498 renal; 2.53 µM in the test with SK-MEL-2 melanoma; 2.35 µM in the test on K-562 leukemia.
As for `NCCCN(CCCCN(CCCN)Cc1ccccc1)Cc1ccccc1`, the TGI in the test on LOX IMVI melanoma is 40.5 µM; in the test on HS 578T breast, 35.7 µM; in the test on MOLT-4 leukemia, 46 µM; with MDA-MB-231 breast, over 100 µM; with CAKI-1 renal, 31.9 µM; in the test with MALME-3M melanoma, over 100 µM. Further, the TGI in the test with CCRF-CEM leukemia is over 100 µM; with SW-620 colon, over 100 µM; in the test with DU-145 prostate, over 100 µM; in the test with MDA-MB-435, over 100 µM; in the test with SF-268 CNS it was 37.1 µM; in the test on T-47D breast, over 100 µM. For the same compound, the TGI in the test with NCI-H460 lung is 32.2 µM; in the test with OVCAR-8 ovarian, over 100 µM; in the test on A498 renal it was over 100 µM; with K-562 leukemia, over 100 µM.
For the compound `Cc1ccc(S(=O)(=O)N(CCN)c2cc3c4c(c2)Oc2cccc5c2C4c2c(cccc2O3)O5)cc1`, the TGI in the test with PC-3 prostate is 35.7 µM; with LOX IMVI melanoma it was 73.4 µM; in the test on HS 578T breast it was 38.2 µM; with MOLT-4 leukemia, over 100 µM; with MDA-MB-231 breast it was 40.9 µM; with MALME-3M melanoma, 22.2 µM. The TGI is 57.9 µM in the test on CCRF-CEM leukemia; over 100 µM in the test with SW-620 colon; 60.3 µM in the test on MDA-MB-435; 27.4 µM in the test on SF-268 CNS; over 100 µM in the test on SR leukemia; over 100 µM in the test on NCI-H460 lung. The TGI in the test with OVCAR-8 ovarian is 23.2 µM; with A498 renal it was over 100 µM; with SK-MEL-2 melanoma it was 47.7 µM; in the test with K-562 leukemia, over 100 µM.
Regarding `CCOC(=O)c1c(NC(=S)Nc2ccccc2)sc2c1CCN(C)C2`, the TGI in the test with PC-3 prostate, with HS 578T breast, in the test on MOLT-4 leukemia, with MDA-MB-231 breast, in the test with CAKI-1 renal and in the test on CCRF-CEM leukemia was over 100 µM in each case. For the same compound, the TGI in the test with DU-145 prostate, in the test with SF-268 CNS, in the test with T-47D breast, in the test on NCI-H460 lung, in the test on OVCAR-8 ovarian and in the test on A498 renal was over 100 µM each time. The TGI with SK-MEL-2 melanoma and in the test on K-562 leukemia was over 100 µM throughout.
For the compound `CCOC(=O)c1cc(=O)c2cccc3c2n1CCS3`, the TGI with PC-3 prostate, in the test with LOX IMVI melanoma, in the test on HS 578T breast, in the test on MOLT-4 leukemia, with MDA-MB-231 breast and in the test on CAKI-1 renal was over 100 µM throughout. Further, the TGI in the test on CCRF-CEM leukemia, in the test with SW-620 colon, in the test with DU-145 prostate, in the test on MDA-MB-435, with SF-268 CNS and in the test with T-47D breast was over 100 µM in each case. For the same compound, the TGI in the test with NCI-H460 lung, in the test with OVCAR-8 ovarian, with A498 renal and with SK-MEL-2 melanoma was over 100 µM throughout.
Regarding `O=C(NCCCCCCCCNC(=O)Nc1cccc2ccccc12)Nc1cccc2ccccc12`, the TGI with PC-3 prostate is over 100 µM; in the test on LOX IMVI melanoma it was 59.1 µM; in the test with HS 578T breast, over 100 µM; in the test on MOLT-4 leukemia it was over 100 µM; in the test on MDA-MB-231 breast, 23.3 µM; with CAKI-1 renal, over 100 µM. Further, the TGI in the test on MALME-3M melanoma is over 100 µM; in the test with CCRF-CEM leukemia, 48.7 µM; with SW-620 colon, 47.3 µM; with DU-145 prostate, over 100 µM; in the test on MDA-MB-435, 81.3 µM; in the test with SF-268 CNS, 45.8 µM. The TGI in the test on T-47D breast was over 100 µM; in the test on NCI-H460 lung, 13.4 µM; in the test with OVCAR-8 ovarian, over 100 µM; with A498 renal it was 34.7 µM; with SK-MEL-2 melanoma it was over 100 µM; with K-562 leukemia it was 46.7 µM.
Consider `COc1cc(/C=C2\CCC(C)C3=C2N=c2s/c(=C/c4ccc(Cl)cc4)c(=O)n2C3c2cc(OC)c(OC)c(OC)c2)cc(OC)c1OC` (configuration not stated), for which the TGI in the test with PC-3 prostate, in the test with LOX IMVI melanoma, with HS 578T breast, with MOLT-4 leukemia, in the test on MDA-MB-231 breast and in the test with CAKI-1 renal was over 100 µM throughout. For the same compound, the TGI in the test with CCRF-CEM leukemia, in the test with SW-620 colon, with DU-145 prostate, with MDA-MB-435, in the test with SF-268 CNS and with SR leukemia was over 100 µM each time. Moreover, the TGI with OVCAR-8 ovarian, in the test with A498 renal, with SK-MEL-2 melanoma and in the test with K-562 leukemia was over 100 µM in each case.
On to `COc1cccc([C@@H]2C/C(=N\NC(=O)C(=O)N[C@@H](C)c3ccccc3)c3ccccc3N2)c1`, for which the TGI is over 100 µM in the test with PC-3 prostate; over 100 µM in the test on LOX IMVI melanoma; over 100 µM in the test on HS 578T breast; 34.8 µM in the test with MOLT-4 leukemia; over 100 µM with MDA-MB-231 breast; over 100 µM in the test with CAKI-1 renal. For the same compound, the TGI is over 100 µM in the test on CCRF-CEM leukemia; over 100 µM in the test on SW-620 colon; over 100 µM in the test with DU-145 prostate; 48.8 µM with MDA-MB-435; over 100 µM in the test with SF-268 CNS; over 100 µM in the test on T-47D breast. The TGI in the test on A498 renal, in the test with SK-MEL-2 melanoma and in the test with K-562 leukemia was over 100 µM each time.
Take `CC(C(=O)NCNC(=O)c1ccccc1)C(=O)Nc1ccccc1` (configuration not stated): the TGI in the test with PC-3 prostate, with HS 578T breast, in the test on MDA-MB-231 breast, in the test on CAKI-1 renal, with MALME-3M melanoma and in the test on CCRF-CEM leukemia was over 100 µM throughout. Besides, the TGI in the test on SW-620 colon, in the test with DU-145 prostate, in the test with MDA-MB-435, in the test on SF-268 CNS, in the test with T-47D breast and in the test on NCI-H460 lung was over 100 µM in each case. For the same compound, the TGI in the test with OVCAR-8 ovarian and in the test with SK-MEL-2 melanoma was over 100 µM each time.
On to `CSc1nc(-c2ccccc2)[nH]c(=O)n1`, for which the TGI in the test on PC-3 prostate, in the test on HS 578T breast, with MOLT-4 leukemia, in the test with MDA-MB-231 breast, with CAKI-1 renal and in the test on MALME-3M melanoma was over 100 µM each time. For the same compound, the TGI with CCRF-CEM leukemia, in the test on SW-620 colon, in the test with DU-145 prostate, in the test on MDA-MB-435, in the test with SF-268 CNS and in the test with T-47D breast was over 100 µM each time. For the same compound, the TGI with OVCAR-8 ovarian, in the test with A498 renal and in the test on SK-MEL-2 melanoma was over 100 µM in each case.
Take `CCOC(=O)C(=[N+]=[N-])C(=O)CSC#N`: the TGI was over 100 µM in the test on PC-3 prostate; 61.9 µM in the test with LOX IMVI melanoma; over 100 µM in the test on HS 578T breast; over 100 µM in the test with MOLT-4 leukemia; over 100 µM in the test with MDA-MB-231 breast; over 100 µM in the test with CAKI-1 renal. In addition, the TGI in the test on MALME-3M melanoma, in the test on CCRF-CEM leukemia, with SW-620 colon, in the test with DU-145 prostate, in the test with MDA-MB-435 and in the test with SF-268 CNS was over 100 µM throughout. In addition, the TGI with T-47D breast, in the test with OVCAR-8 ovarian, in the test on A498 renal and in the test with SK-MEL-2 melanoma was over 100 µM in each case.
For `CC1(C)CN(CC(=O)O)CC(Cc2ccc(OCC(=O)O)cc2)N(CC(=O)O)CC(C)(C)SS1` (configuration not stated), the TGI in the test on PC-3 prostate, in the test with LOX IMVI melanoma, with HS 578T breast, in the test on MOLT-4 leukemia, in the test on MDA-MB-231 breast and with CAKI-1 renal was over 100 µM each time. Besides, the TGI in the test with MALME-3M melanoma, with SW-620 colon, in the test with DU-145 prostate, in the test on MDA-MB-435, in the test on SF-268 CNS and in the test on NCI-H460 lung was over 100 µM throughout. Further, the TGI in the test on OVCAR-8 ovarian, in the test on A498 renal, in the test on SK-MEL-2 melanoma and with K-562 leukemia was over 100 µM each time.
In the case of `COc1ccccc1NC1Oc2cc3c(cc2C(c2cc(OC)c(OC)c(OC)c2)C1C)OCO3` (configuration not stated), the TGI is over 100 µM with PC-3 prostate; over 100 µM in the test on LOX IMVI melanoma; over 25.2 µM in the test with HS 578T breast; 33 µM in the test on MOLT-4 leukemia; over 23.9 µM with MDA-MB-231 breast; 17.1 µM in the test with CAKI-1 renal. Besides, the TGI in the test with MALME-3M melanoma is 9.43 µM; in the test on CCRF-CEM leukemia, over 50.3 µM; in the test on SW-620 colon it was over 100 µM; in the test with DU-145 prostate it was over 100 µM; in the test on SF-268 CNS it was over 46.2 µM; in the test on T-47D breast it was over 100 µM. The TGI with NCI-H460 lung is over 100 µM; in the test with OVCAR-8 ovarian, over 64.2 µM; in the test on A498 renal, over 30 µM; in the test on SK-MEL-2 melanoma it was over 100 µM; in the test with K-562 leukemia, 12.5 µM.
